Reference: patent US9486506B2 (Novo Nordisk A/S, priority 2011, dated 2016)
Numbered stars: 1 amine (or outer) side, 2 acyl side, 3 side chain; on linkers, the order of the positions; unused ones are H or OH. Side chains are listed from the residue outwards. Peptide text beside a SMILES is read from it. * marks the point of attachment. C18 diacid = O=C(O)CCCCCCCCCCCCCCCCC(=O)*; γGlu = O=C(O)[C@H](CCC(=O)[*:2])N[*:1]; AEEA = NCCOCCOCC(=O)O

Assays:
glucagon receptor = target: T1, glucagon receptor (Homo sapiens, UniProt P47871); test: Assay (I) Glucagon activity (cAMP biosensor, FLIPR); type: cell-based
T1 construct: expressed in transfected cells

[1] = Assay (X) Chemical stability assessment by RP-UPLC; type: physicochemical; details: pH 8.15, 14 days at 37° C. vs 5° C., 333 μM

T1 sequence (P47871 26-477): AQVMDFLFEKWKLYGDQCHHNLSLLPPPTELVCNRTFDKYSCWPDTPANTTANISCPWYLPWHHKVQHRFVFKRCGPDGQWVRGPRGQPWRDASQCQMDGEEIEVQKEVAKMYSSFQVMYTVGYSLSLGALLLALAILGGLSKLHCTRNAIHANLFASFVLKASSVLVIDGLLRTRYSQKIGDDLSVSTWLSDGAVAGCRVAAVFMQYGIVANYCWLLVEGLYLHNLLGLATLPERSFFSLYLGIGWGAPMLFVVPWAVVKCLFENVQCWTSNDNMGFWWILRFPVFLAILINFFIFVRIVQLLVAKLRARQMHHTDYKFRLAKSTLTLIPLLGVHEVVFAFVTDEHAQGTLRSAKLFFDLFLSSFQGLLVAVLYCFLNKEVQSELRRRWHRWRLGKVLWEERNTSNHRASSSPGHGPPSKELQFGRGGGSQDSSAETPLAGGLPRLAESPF

SMILES | EC50 (glucagon receptor) [nM] | Chemical stability [Purity loss/14 days 37 C.] [1] [%]
CC(C)C[C@H](NC(=O)[C@H](Cc1ccc(O)cc1)NC(=O)[C@H](CCCCN)NC(=O)[C@H](CO)NC(=O)[C@H](Cc1ccc(O)cc1)NC(=O)[C@H](CC(=O)O)NC(=O)[C@H](CO)NC(=O)[C@@H](NC(=O)[C@H](Cc1ccccc1)NC(=O)[C@@H](NC(=O)CNC(=O)[C@H](CCC(N)=O)NC(=O)[C@H](CO)NC(=O)[C@@H](N)Cc1c[nH]cn1)[C@@H](C)O)[C@@H](C)O)C(=O)N[C@@H](CCC(=O)O)C(=O)N[C@@H](CO)C(=O)N[C@@H](CCCNC(=N)N)C(=O)N[C@@H](CCCNC(=N)N)C(=O)N[C@@H](C)C(=O)N[C@@H](CCC(N)=O)C(=O)N[C@@H](CCC(=O)O)C(=O)N[C@@H](Cc1ccccc1)C(=O)N[C@H](C(=O)N[C@@H](CCCCNC(=O)CC[C@H](NC(=O)CC[C@H](NC(=O)CC[C@H](NC(=O)CC[C@H](NC(=O)CCCCCCCCCCCCCCCCC(=O)O)C(=O)O)C(=O)O)C(=O)O)C(=O)O)C(=O)N[C@@H](Cc1c[nH]c2ccccc12)C(=O)N[C@@H](CC(C)C)C(=O)N[C@@H](CC(C)C)C(=O)N[C@@H](CO)C(=O)N[C@H](C(=O)O)[C@@H](C)O)C(C)C [Example 49, N^ε24-[(4S)-4-carboxy-4-[[(4S)-4-carboxy-4-[[(4S)-4-carboxy-4-[[(4S)-4-carboxy-4-(17-carboxyheptadecanoylamino)butanoyl]amino]butanoyl]amino]butanoyl]amino]butanoyl]-[Glu15,Glu21,Lys24,Leu27,Ser28]-Glucagon] (H-HSQGTFTSDYSKYLESRRAQEFVK([γGlu-γGlu-γGlu-γGlu-C18 diacid])WLLST-OH) | 0.169 | 6.8
CC(C)C[C@H](NC(=O)[C@H](Cc1ccc(O)cc1)NC(=O)[C@H](CCCCN)NC(=O)[C@H](CO)NC(=O)[C@@H](NC(=O)[C@H](CC(=O)O)NC(=O)[C@H](CO)NC(=O)[C@@H](NC(=O)[C@H](Cc1ccccc1)NC(=O)[C@@H](NC(=O)CNC(=O)[C@H](CCC(N)=O)NC(=O)[C@H](CO)NC(=O)[C@@H](N)Cc1c[nH]cn1)[C@@H](C)O)[C@@H](C)O)C(C)C)C(=O)N[C@@H](CCC(=O)O)C(=O)N[C@@H](CO)C(=O)N[C@@H](CCCNC(=N)N)C(=O)N[C@@H](CCCNC(=N)N)C(=O)N[C@@H](C)C(=O)N[C@@H](CCC(N)=O)C(=O)N[C@@H](CCC(=O)O)C(=O)N[C@@H](Cc1ccccc1)C(=O)N[C@H](C(=O)N[C@@H](CCCCNC(=O)CC[C@H](NC(=O)CC[C@H](NC(=O)CC[C@H](NC(=O)CC[C@H](NC(=O)CCCCCCCCCCCCCCCCC(=O)O)C(=O)O)C(=O)O)C(=O)O)C(=O)O)C(=O)N[C@@H](Cc1c[nH]c2ccccc12)C(=O)N[C@@H](CC(C)C)C(=O)N[C@@H](CC(C)C)C(=O)N[C@@H](CO)C(=O)N[C@H](C(=O)O)[C@@H](C)O)C(C)C [Example 50, N^ε24-[(4S)-4-carboxy-4-[[(4S)-4-carboxy-4-[[(4S)-4-carboxy-4-[[(4S)-4-carboxy-4-(17-carboxyheptadecanoylamino)butanoyl]amino]butanoyl]amino]butanoyl]amino]butanoy]-[Val10,Glu15,Glu21,Lys24,Leu27,Ser28]-Glucagon] (H-HSQGTFTSDVSKYLESRRAQEFVK([γGlu-γGlu-γGlu-γGlu-C18 diacid])WLLST-OH) | 0.118 | 4.8
CC(C)C[C@H](NC(=O)[C@H](Cc1ccc(O)cc1)NC(=O)[C@H](CCCNC(=N)N)NC(=O)[C@H](CO)NC(=O)[C@H](Cc1ccc(O)cc1)NC(=O)[C@H](CC(=O)O)NC(=O)[C@H](CO)NC(=O)[C@@H](NC(=O)[C@H](Cc1ccccc1)NC(=O)[C@@H](NC(=O)CNC(=O)[C@H](CCC(N)=O)NC(=O)[C@H](CO)NC(=O)[C@@H](N)Cc1c[nH]cn1)[C@@H](C)O)[C@@H](C)O)C(=O)N[C@@H](CCC(=O)O)C(=O)N[C@@H](CO)C(=O)N[C@@H](CCCNC(=N)N)C(=O)N[C@@H](CCCNC(=N)N)C(=O)N[C@@H](C)C(=O)N[C@@H](CCC(N)=O)C(=O)N[C@@H](CCC(=O)O)C(=O)N[C@@H](Cc1ccccc1)C(=O)N[C@H](C(=O)N[C@@H](CCCCNC(=O)CC[C@H](NC(=O)CC[C@H](NC(=O)CC[C@H](NC(=O)CC[C@H](NC(=O)CCCCCCCCCCCCCCCCC(=O)O)C(=O)O)C(=O)O)C(=O)O)C(=O)O)C(=O)N[C@@H](Cc1c[nH]c2ccccc12)C(=O)N[C@@H](CC(C)C)C(=O)N[C@@H](CC(C)C)C(=O)N[C@@H](CO)C(=O)N[C@H](C(=O)O)[C@@H](C)O)C(C)C [Example 51, N^ε24-[(4S)-4-carboxy-4-[[(4S)-4-carboxy-4-[[(4S)-4-carboxy-4-[[(4S)-4-carboxy-4-(17-carboxyheptadecanoylamino)butanoyl]amino]butanoyl]amino]butanoyl]amino]butanoyl]-[Arg12,Glu15,Glu21,Lys24,Leu27,Ser28]-Glucagon] (H-HSQGTFTSDYSRYLESRRAQEFVK([γGlu-γGlu-γGlu-γGlu-C18 diacid])WLLST-OH) | 0.148 | 5.7
CC(C)C[C@H](NC(=O)[C@H](Cc1ccc(O)cc1)NC(=O)[C@H](CCCNC(=N)N)NC(=O)[C@H](CO)NC(=O)[C@H](Cc1ccc(O)cc1)NC(=O)[C@H](CC(=O)O)NC(=O)[C@H](CO)NC(=O)[C@@H](NC(=O)[C@H](Cc1ccccc1)NC(=O)[C@@H](NC(=O)CNC(=O)[C@H](CCC(N)=O)NC(=O)[C@H](CO)NC(=O)[C@@H](N)Cc1c[nH]cn1)[C@@H](C)O)[C@@H](C)O)C(=O)N[C@@H](CCC(=O)O)C(=O)N[C@@H](CO)C(=O)N[C@@H](CCCNC(=N)N)C(=O)N[C@@H](CCCNC(=N)N)C(=O)N[C@@H](C)C(=O)N[C@@H](CCC(N)=O)C(=O)N[C@@H](CCC(=O)O)C(=O)N[C@@H](Cc1ccccc1)C(=O)N[C@H](C(=O)N[C@@H](CCCCNC(=O)CC[C@H](NC(=O)CC[C@H](NC(=O)COCCOCCNC(=O)COCCOCCNC(=O)CC[C@H](NC(=O)CCCCCCCCCCCCCCCCC(=O)O)C(=O)O)C(=O)O)C(=O)O)C(=O)N[C@@H](Cc1c[nH]c2ccccc12)C(=O)N[C@@H](CC(C)C)C(=O)N[C@@H](CC(C)C)C(=O)N[C@@H](CO)C(=O)N[C@H](C(=O)O)[C@@H](C)O)C(C)C [Example 52, N^ε24-[(4S)-4-carboxy-4-[[(4S)-4-carboxy-4-[[2-[2-[2-[[2-[2-[2-[[(4S)-4-carboxy-4-(17-carboxyheptadecanoylamino)butanoyl]amino]ethoxy]ethoxy]acetyl]amino]ethoxy]ethoxy]acetyl]amino]butanoyl]amino]butanoyl]-[Arg12,Glu15,Glu21,Lys24,Leu27,Ser28]-Glucagon] (H-HSQGTFTSDYSRYLESRRAQEFVK([γGlu-γGlu-AEEA-AEEA-γGlu-C18 diacid])WLLST-OH) | 0.289 | 6.3
